This passage reports Activity, Kd and Stability results from ChEMBL document CHEMBL5042525, “Activation of E6AP/UBE3A-Mediated Protein Ubiquitination and Degradation Pathways by a Cyclic γ-AA Peptide” (J Med Chem, 2022).

The source made the active and inactive calls. The calls are words filed in the database; no cut-off is given here.

Series [1] is filed under the species Homo sapiens. In words: Activation of wild type N-terminal Flag-tagged E6AP (unknown origin) mediated ubiquitination of p53 substrate at 10 to 100 uM in presence of […] E6 and Uba1/Ubch7 preincubated for 30 min followed by UB addition incubated for 2 hrs by SDS PAGE based Western blot analysis. To be noted: dose 10-100 µM, time 150.0 min.
Series [2] is filed under the species Homo sapiens. Briefly: Activation of full length E6AP (unknown origin) self-ubiquitination at 100 uM preincubated for 30 mins followed by UB addition incubated for 2 hrs by SDS PAGE based Western blot analysis. A general note: Immunoblotting shows a protein as a band on a membrane.
Series [3] is described as follows: Binding affinity to recombinant E6AP HECT domain (unknown origin) expressed in BL21 cells by fluorescence polarization assay. Also on record: species or system Homo sapiens. (Polarisation of emitted light reports the rotation of a fluorescent probe.)
Series [4] is filed under the species Homo sapiens. In words: Activation of wild type N-terminal Flag-tagged E6AP (unknown origin) mediated UbxD8 substrate ubiquitination in presence of Uba1/Ubch7 at 10 to 100 uM preincubated for 30 mins followed by UB addition incubated for 2 hrs by SDS PAGE based Western blot analysis. The conditions noted are these: dose 10-100 µM, time 2.5 hrs.
The species entered for series [5] is Homo sapiens. In words: Activation of wild type N-terminal Flag-tagged E6AP HECT domain (unknown origin) self-ubiquitination assessed as increase in formation of polyubiquitinated HECT in presence of wild type HA-tagged UB at 10 to 100 uM preincubated for 30 mins followed by UB addition incubated for 2 hrs by SDS PAGE based Western blot analysis. To be noted: dose 10-100 µM, time 150.0 min.

Series [6] is filed under the species Homo sapiens. Briefly: Activation of wild type N-terminal Flag-tagged E6AP HECT domain (unknown origin) self-ubiquitination in presence of UbcH7 at 5 uM preincubated for 30 mins followed by UB addition incubated for 2 hrs by SDS PAGE based Western blot analysis. The conditions noted are these: filed as activator, time 2.5 hrs.
Series [7] in a line: Stability of the compound in human serum for 24 hrs by HPLC-MS analysis. In kind it is ADME, cell-free.
The species entered for series [8] is Homo sapiens. Briefly: Activation of E6AP (unknown origin) self-ubiquination in presence of UbcH7 at 5 uM preincubated for 30 mins followed by UB addition incubated for 2 hrs by SDS PAGE based Western blot analysis. To be noted: filed as activator, time 2.5 hrs.
The species entered for series [9] is Homo sapiens. In words: Activation of E6AP (unknown origin) self-ubiquination in presence of wild type HA-tagged UB at 5 uM preincubated for 30 mins followed by UB addition incubated for 2 hrs by SDS PAGE based Western blot analysis. To be noted: filed as activator, time 150.0 min.
Series [10] deals with HEK293T. Briefly: Activation of E6AP mediated HHR23A degradation in HEK293T cells at 50 uM preincubated for 14 hrs followed by CHX addition by cycloheximide chase assay. In kind it is cell-based. To be noted: Homo sapiens, filed as activator.
The species entered for series [11] is Homo sapiens. In words: Activation of wild type N-terminal Flag-tagged E6AP (unknown origin) mediated beta-catenin substrate ubiquitination in presence of Uba1/Ubch7 preincubated for 30 mins followed by UB addition incubated for 2 hrs by SDS PAGE based Western blot analysis. The conditions noted are these: filed as activator, dose 1-100 µM, time 150.0 min.

For series [12], the system named is HEK293T. In words: Activation of E6AP mediated HHR23A degradation in HEK293T cells at 1 to 5 uM preincubated for 14 hrs followed by CHX addition by cycloheximide chase assay. In kind it is cell-based. The conditions noted are these: Homo sapiens, filed as activator, dose 1-5 µM.
The species named for series [13] is Homo sapiens. In words: Activation of E6AP (unknown origin) self-ubiquination in presence of Uba1 at 5 uM preincubated for 30 mins followed by UB addition incubated for 2 hrs by SDS PAGE based Western blot analysis. The conditions noted are these: filed as activator, time 2.5 hrs.
The species entered for series [14] is Homo sapiens. In words: Activation of wild type N-terminal Flag-tagged E6AP HECT domain (unknown origin) self-ubiquitination in presence of wild type HA-tagged UB at 5 uM preincubated for 30 mins followed by UB addition incubated for 2 hrs by SDS PAGE based Western blot analysis. The conditions noted are these: filed as activator, time 150.0 min.
The test system of series [15] is HEK293T. In words: Activation of E6AP (unknown origin) mediated HHR23A substrate ubiquitination in HEK293T cells at 25 to 50 uM preincubated for 14 hrs followed by addition of MG132 incubated for 12 hrs by SDS PAGE based Western blot analysis. The conditions noted are these: Homo sapiens, filed as activator, dose 25-50 µM, time 26.0 hrs. In kind it is cell-based.

For series [16], the species on record is Homo sapiens. Briefly: Activation of wild type N-terminal Flag-tagged E6AP (unknown origin) mediated HHR23A substrate ubiquitination in presence of Uba1/Ubch7 preincubated for 30 mins followed by UB addition incubated for 2 hrs by SDS PAGE based Western blot analysis. To be noted: filed as activator, dose 1-100 µM, time 150.0 min.
For series [17], the species on record is Homo sapiens. Briefly: Activation of wild type N-terminal Flag-tagged E6AP (unknown origin) mediated UbxD8 substrate ubiquitination in presence of Uba1/Ubch7 preincubated for 30 mins followed by UB addition incubated for 2 hrs by SDS PAGE based Western blot analysis. To be noted: filed as activator, time 2.5 hrs.
Series [18] is filed under the species Homo sapiens. Briefly: Activation of wild type N-terminal Flag-tagged E6AP HECT domain (unknown origin) self-ubiquitination in presence of Uba1 at 5 uM preincubated for 30 mins followed by UB addition incubated for 2 hrs by SDS PAGE based Western blot analysis. The conditions noted are these: filed as activator, time 2.5 hrs.
Series [19] deals with HEK293T. In words: Activation of E6AP (unknown origin) in HEK293T cells assessed as increase in ubiquitination level of UbxD8 substrate at 25 to 50 uM preincubated for 14 hrs followed by addition of MG132 incubated for 12 hrs by SDS PAGE based Western blot analysis. The class given is cell-based. The conditions noted are these: Homo sapiens, filed as activator, dose 25-50 µM, time 26.0 hrs.

Series [20] can be described thus: Stability of the compound in ammonium bicarbonate buffer at pH 7.8 assessed as pronase (unknown origin)-mediated drug degradation for 24 hrs by HPLC-MS analysis. To be noted: human, pH 7.8, 24 h. In kind it is ADME.
For series [21], the system named is HEK293T. In words: Activation of E6AP mediated UbxD8 degradation in HEK293T cells at 50 uM preincubated for 14 hrs followed by CHX addition by cycloheximide chase assay. The class given is cell-based. To be noted: Homo sapiens, filed as activator.

Consider `C[C@H]1CN(C(=O)CCC(=O)O)CC(=O)N[C@@H](Cc2ccccc2)CN(CC(N)=O)C(=O)CCSCc2ccc(cc2)C(=O)N[C@@H](C)CN(C(=O)Cc2ccc3c(c2)OCO3)CC(=O)N[C@@H](CCC(=O)O)CN(C(=O)CC2CC2)CC(=O)N1`, for which the outcome in the series filed under Homo sapiens [1], in the series listed under Homo sapiens [2], in the series listed under Homo sapiens [4] and in the series listed under Homo sapiens [5] was inactive. Besides, the Kd entry in series [3] was “Not Active”.

For the molecule `COc1cc(CC(=O)N2CC(=O)N[C@@H](Cc3ccccc3)CN(C(=O)CC3CC3)CC(=O)N[C@@H](CC(C)C)CN(CC(N)=O)C(=O)CCSCc3ccc(cc3)C(=O)N[C@@H](CCC(=O)O)CN(C(=O)Cc3ccc4c(c3)OCO4)CC(=O)N[C@@H](CC(C)C)C2)cc(OC)c1`, the outcome in the series listed under Homo sapiens [1], in the series filed under Homo sapiens [2], in the series filed under Homo sapiens [4] and in the series filed under Homo sapiens [5] was inactive. In addition, the dissociation constant Kd in series [3] (read-out: Kd) came to 162 nM.

As to `CC(C)C[C@H]1CN(CC(N)=O)C(=O)CCSCc2ccc(cc2)C(=O)N[C@@H](Cc2ccccc2)CN(C(=O)Cc2ccc3ccccc3c2)CC(=O)N[C@@H](CC(C)C)CN(C(=O)CCC2CCCCC2)CC(=O)N[C@@H](Cc2ccccc2)CN(C(=O)Cc2ccc3c(c2)OCO3)CC(=O)N1`, the outcome in the series listed under Homo sapiens [1], in the series filed under Homo sapiens [2], in the series listed under Homo sapiens [4] and in the series listed under Homo sapiens [5] was inactive. The Kd in series [3] (read-out: Kd) was 82.2 nM.

Turning to `CC(C)C[C@H]1CN(C(=O)Cc2ccc3c(c2)OCO3)CC(=O)N[C@@H](CCC(=O)O)CN(C(=O)CCC2CCCCC2)CC(=O)N[C@@H](C)CN(C(=O)CCC(=O)O)CC(=O)N[C@@H](Cc2ccccc2)CN(CC(N)=O)C(=O)CCSCc2ccc(cc2)C(=O)N1`, the result in the series listed under Homo sapiens [1], in the series listed under Homo sapiens [2], in the series filed under Homo sapiens [4] and in the series filed under Homo sapiens [5] was inactive. In [3], the equilibrium dissociation constant (Kd) result was “Not Active”.

Turning to `COc1cc(CC(=O)N2CC(=O)N[C@@H](Cc3ccccc3)CN(C(=O)CC3CC3)CC(=O)N[C@@H](CC(C)C)CN(CC(N)=O)C(=O)CCSCc3ccc(cc3)C(=O)N[C@@H](CCCCN)CN(C(=O)Cc3ccc4ccccc4c3)CC(=O)N[C@@H](CC(C)C)C2)cc(OC)c1`, the outcome in the series filed under Homo sapiens [6], in the series listed under Homo sapiens [8], in the series filed under Homo sapiens [9], in the series on HEK293T [10], in the series with HEK293T [12] and in the series filed under Homo sapiens [13] was Active. Further, the result in the series listed under Homo sapiens [14], in the series on HEK293T [15], in the series listed under Homo sapiens [2] (filed as activator), in the series filed under Homo sapiens [18], with HEK293T [19] and in the series listed under Homo sapiens [4] (filed as activator) was Active. In addition, the result with HEK293T [21] and in the series listed under Homo sapiens [5] (filed as activator) was Active. The Stability entry in [7] and in series [20] was “Stable” in each case. Also, the result in the series filed under Homo sapiens [1] was inactive. The Activity entry in the series filed under Homo sapiens [11], in the series filed under Homo sapiens [16] and in the series listed under Homo sapiens [17] was “Dose-Dependent Effect” throughout. Besides, in series [3] (read-out: Kd), the Kd was found to be 218 nM.

As to `CC(C)C[C@H]1CN(CC(N)=O)C(=O)CCSCc2ccc(cc2)C(=O)N[C@@H](C)CN(C(=O)Cc2ccc3ccccc3c2)CC(=O)N[C@@H](CC(C)C)CN(C(=O)CCc2ccccc2)CC(=O)N[C@@H](Cc2ccccc2)CN(C(=O)Cc2ccc3c(c2)OCO3)CC(=O)N1`, the result in the series filed under Homo sapiens [1], in the series listed under Homo sapiens [2], in the series listed under Homo sapiens [4] and in the series listed under Homo sapiens [5] was inactive. In series [3] (read-out: Kd), the Kd was 187 nM.

For the molecule `COc1cc(CC(=O)N2CC(=O)N[C@@H](C)CN(C(=O)Cc3cc(OC)cc(OC)c3)CC(=O)N[C@@H](CC(C)C)CN(CC(N)=O)C(=O)CCSCc3ccc(cc3)C(=O)N[C@@H](Cc3ccccc3)CN(C(=O)Cc3ccc4c(c3)OCO4)CC(=O)N[C@@H](Cc3ccccc3)C2)cc(OC)c1`, the result in the series filed under Homo sapiens [1], in the series filed under Homo sapiens [2], in the series filed under Homo sapiens [4] and in the series listed under Homo sapiens [5] was inactive. For the same molecule, the Kd in series [3] (read-out: Kd) came to 83.4 nM.

Take `C[C@H]1CN(C(=O)Cc2ccc3c(c2)OCO3)CC(=O)N[C@@H](Cc2ccccc2)CN(C(=O)Cc2ccc3ccccc3c2)CC(=O)N[C@@H](CCC(=O)O)CN(C(=O)CC2CC2)CC(=O)N[C@@H](Cc2ccccc2)CN(CC(N)=O)C(=O)CCSCc2ccc(cc2)C(=O)N1`: the outcome in the series listed under Homo sapiens [1], in the series listed under Homo sapiens [2], in the series listed under Homo sapiens [4] and in the series listed under Homo sapiens [5] was inactive. The Kd in series [3] (read-out: Kd) is 171 nM.

Usually Kd stands for the free concentration of one partner at which half of the binding sites on the other are occupied at equilibrium, for simple one-to-one binding.
